Assay results published in ChEMBL document CHEMBL1130706, “Synthesis and structure-activity relationships of adenosine analogs as inhibitors of trypanosomal glyceraldehyde-3-phosphate dehydrogenase. Modifications at positions 5' and 8” (Bioorg Med Chem Lett, 1998).

Key:
[1] = Inhibition of Leishmania mexicana GAPDH(glyceraldehyde-3-phosphate dehydrogenase)
[2] = Compound was tested for the inhibition of Leishmania mexicana GAPDH(glyceraldehyde-3-phosphate dehydrogenase)

| Compound | Ki [1] [µM] | Ki [2] [µM] |
| --- | --- | --- |
| O=C1c2ccccc2C(=O)N1C[C@H]1OC(n2cnc3c(NCc4ccccc4)ncnc32)[C@H](O)[C@@H]1O (some centres undefined) | 4000 | – |
| Nc1ncnc2c1ncn2[C@@H]1O[C@H](CO)[C@@H](O)[C@H]1O [ADENOSINE] | 2500 | – |
| OC[C@H]1O[C@@H](n2cnc3c(NCc4ccccc4)ncnc32)[C@H](O)[C@@H]1O [N6-BENZYLADENOSINE] | 2800 | – |
| CC(C)Nc1nc2c(N)ncnc2n1C1O[C@H](CO)[C@@H](O)[C@H]1O (some centres undefined) | 1500 | – |
| Nc1ncnc2c1nc(-c1cccs1)n2[C@@H]1O[C@H](CO)[C@@H](O)[C@H]1O | 300 | – |
| NC(=O)c1ccccc1C(=O)NC[C@H]1OC(n2cnc3c(NCc4ccccc4)ncnc32)[C@H](O)[C@@H]1O (some centres undefined) | 800 | – |
| Nc1ncnc2c1ncn2C1O[C@H](CNC(=O)c2ccccc2)[C@@H](O)[C@H]1O (some centres undefined) | 3300 | – |
| CC(C)=CCNc1ncnc2c1nc(-c1cccs1)n2C1O[C@H](CO)[C@@H](O)[C@H]1O (some centres undefined) | 9 | 18 |
